Laboratory results taken from patent US10934351B2, “Cancer stem cell-specific molecule” (CHUGAI SEIYAKU KABUSHIKI KAISHA, priority 2011, dated 2021).

B1: CD70 (protein, listed as Homo sapiens)
chain: MPEEGSGCSVRRRPYGCVLRAALVPLVAGLVICLVVCIQRFAQAQQQLPLESLGWDVAELQLNHTGPQQDPRLYWQGGPALGRSFLHGPELDKGQLRIHRDGIYMVHIQVTLAICSSTTASRHHPTTLAVGICSPASRSISLLRLSFHQGCTIASQRLTPLARGDTLCTNLTGTLLPSRNTDETFFGVQWVRP
B2: EDAR (protein, listed as Homo sapiens)
chain: MAHVGDCTQTPWLPVLVVSLMCSARAEYSNCGENEYYNQTTGLCQECPPCGPGEEPYLSCGYGTKDEDYGCVPCPAEKFSKGGYQICRRHKDCEGFFRATVLTPGDMENDAECGPCLPGYYMLENRPRNIYGMVCYSCLLAPPNTKECVGATSGASANFPGTSGSSTLSPFQHAHKELSGQGHLATALIIAMSTIFIMAIAIVLIIMFYILKTKPSAPACCTSHPGKSVEAQVSKDEEKKEAPDNVVMFSEKDEFEKLTATPAKPTKSENDASSENEQLLSRSVDSDEEPAPDKQGSPELCLLSLVHLAREKSATSNKSAGIQSRRKKILDVYANVCGVVEGLSPTELPFDCLEKTSRMLSSTYNSEKAVVKTWRHLAESFGLKRDEIGGMTDGMQLFDRISTAGYSIPELLTKLVQIERLDAVESLCADILEWAGVVPPASQPHAAS

Assays:
[1] = test system: Lgr5-positive large intestine CSCs; assay: Change in Lgr5 expression of Lgr5-positive CSCs after chemotherapeutic treatment (flow cytometry / immunocytochemistry); type: cell-based, human; conditions: for Lgr5 state of drug-resistant cells arising from Lgr5-positive CSCs: three-day exposure, 10 μg/ml (FIGS. 11, 32, 25)
Description: Large intestine CSCs were incubated with mouse anti-human Lgr5 antibody (2T15E-2) and then with […] rat anti-mouse IgG antibody (Invitrogen) to stain Lgr5. The aldehyde dehydrogenase activity was measured using the AldeFluor Kit (Stemcell Technologies). Mouse cells were discriminated from human large intestine CSCs by staining with anti-mouse MHC class I antibody (Abcam), and PE- or APC-labeled goat […] IgG2a antibody (BioLegend). Dead cells were also removed using the 7-AAD Viability Dye (Beckman Coulter).
In addition, to assess whether Lgr5-negative large intestine CSCs undergo a transition into an Lgr5-positive state, the present inventors cultured adherently Lgr5-negative large intestine CSCs prepared via irinotecan treatment again in a serum-free stem cell culture medium. […] On the other hand, when Lgr5-positive adherent large intestine CSCs were cultured in an ultra-low adherent plate, the present inventors observed that some of the cells halted their growth and formed a spheroid-like structure and that the Lgr5 mRNA level was very low (FIGS. 12 and 33). The transition from the Lgr5-positive to Lgr5-negative state (and the reverse) was also confirmed by observations using a single cell in culture. […]
Using a stem cell medium, Lgr5-positive adherent cells were seeded at 3×10^5 cells/well in a 6-well plate (BD, Cat. No. 353046). […] After three-day culture, irinotecan-resistant cells were detected. […]
FITC-labeled mouse mAb to human CD326 (EpCAM), PE-labeled mouse mAb to human CD133/1 (AC133), PE-labeled mouse mAb to human CD44, PE-labeled mouse mAb to human CD166, PE-labeled mouse mAb to human CD24, PE-labeled mouse mAb to human CD26, or PE-labeled mouse mAb to human CD29. […] The ALDH activity was detected using AldeFluor Kit according to the procedure recommended by the manufacturer. […] Cells negative for 7-AAD Viability Dye were analyzed for cancer stem cell markers.

[2] = test system: Lgr5-positive large intestine CSCs; assay: Cell proliferation / chemosensitivity assay (Cell Counting Kit-8), adherent CSCs; type: cell-based, human
Description: (§1) Floating and adherent CSCs were plated at about 100 and 1×10^4 cells/well in 96-well plates, respectively. On days 0 and 3, viable cell counts were determined by the Cell Counting Kit-8 Assay (Doujindo) according to the manufacturer's protocol. Average absorbance on day 0 was taken as 100%. For chemosensitivity assay, floating and adherent CSCs were plated at about 100 and 1×10^4 cells/well in 96-well plates, respectively. […] After three days of culture in the presence of the agents, the Cell Counting Kit-8 was added to the cells. The average absorbance of cells exposed to DMSO or medium alone was taken as 100%. All experiments were performed in triplicate.

[3] = test system: Lgr5-negative large intestine CSCs; assay: Cell proliferation / chemosensitivity assay (Cell Counting Kit-8), Lgr5-negative CSCs; type: cell-based, human; conditions: for proliferation and survival of Lgr5-negative large intestine CSCs: 10 μg/ml, three days (FIGS. 10 and 24); for percentage of viable cells relative to non-treated control cells: Lgr5-negative CSCs (PLR59 and PLR123), three days, concentration series (FIG. 47)
Description: as §1

[4] = test system: tumors derived from Lgr5-positive CSCs (PLR123); assay: Irinotecan treatment of NOG mice bearing tumors derived from Lgr5-positive CSCs; type: in vivo
Description: Mice bearing tumors derived from Lgr5-positive CSCs (PLR123) were treated with irinotecan, and their tumors were observed. Irinotecan or vehicle was administered to mice at days 12, 15, and 18 after tumor grafting. Scale bar represents 25 μm.
FIG. 55 Irinotecan was administered at a dose of 120 mg/kg/day to NOG mice at days 12, 15, and 18 after grafting tumors derived from Lgr5-positive CSCs (PLR123). This figure is a graph showing tumor volumes in control mice administered with vehicle (closed diamond) and mice administered with irinotecan (closed square or triangle). Each value represents mean+standard deviation.
FIG. 56 is a graph showing the numbers of Lgr5-positive and HLA-DMA-positive cells in xenograft tumor tissues. Thin sections of tissues were treated with Lgr5 antibody and HLA-DMA antibody, and then the numbers of Lgr5-positive and HLA-DMA-positive cells were measured. Values represent the total numbers of cells counted for respective groups (n=3).
To probe the possibility of in vivo transition to a growth inhibitor-resistant state, irinotecan was administered at the maximum tolerated dose (MTD) (120 mg/kg) into the peritoneal cavities of NOG mice bearing tumors derived from Lgr5-positive CSCs. […] By contrast, in vehicle-treated control mice, about one third of cancer cells were positive for Lgr5 in both ductal and budding areas (FIG. 54). Both Lgr5-positive cells and HLA-DMA-positive and Lgr5-negative cells were positive for EREG, and were identified to be CSCs (FIG. 54). After irinotecan treatment, Lgr5-positive cells appeared again (FIG. 54).

[5] = test system: irinotecan-non-treated PLR59; assay: Internalization activity / anti-tumor effect with Mab-ZAP or Rat-ZAP (CellTiter-Glo); type: cell-based, human; conditions: with Mab-ZAP or Rat-ZAP 1 μg/ml, 72 hours
Description: (§2) Mab-ZAP and Rat-ZAP are anti-mouse IgG antibody and anti-rat IgG antibody, respectively, conjugated with saporin, a toxin that inhibits protein synthesis (Advanced Targeting Systems). To assess the activity of internalization into irinotecan-non-treated cells, PLR59 and PLR123 cells were seeded at a cell density of 30000 cells/80 μl/well to respective wells of a 96-well plate. Following day, each antibody solution was added at a final concentration of 0.01, 0.1, or 1 μg/ml to the respective wells. Then, Mab-ZAP or Rat-ZAP was added at a final concentration 1 μg/ml to the respective wells, and the plate was incubated at 37° C. for 72 hours in a CO2 incubator. To assess the activity of internalization into irinotecan-treated cells, PLR59 and PLR123 cells were seeded in a 96-well plate, and irinotecan was added at a final concentration of 15 μM to each well. The plate was incubated at 37° C. for 72 hours in a CO2 incubator. Various antibodies were assessed for the activity of internalization to cells cultured as described above in the presence or absence of irinotecan. For assay, the various antibodies were each assessed for the internalization activity into cells contained in each well where the medium was replaced with the same irinotecan-free medium as used for irinotecan-non-treated cells. Seventy-two hours after addition of antibodies and Mab-ZAP or Rat-ZAP, 10 μl of 3% SDS (Nacalai Tesque) was added to each well of the plate. The cells in the plate were lysed thoroughly by stirring the plate using a plate mixer. Then, 100 μl of CellTiter-Glo™ Luminescent Cell Viability Assay (Promega) was added to each well. The mixture in each well was assayed to determine its luminescent signal. […] In Table 14, symbols, −, +, ++, and +++, represent relative values for the internalization activity when a test antibody was assayed at a concentration of […]. […] Symbols, −, +, ++, and +++, indicate that the relative value is less than 5%, 5% or more and less than 15%, 15% or more and less than 25%, and 25% or more, respectively.

[6] = test system: irinotecan-non-treated PLR123; assay: as above; type: cell-based, human; conditions: with Mab-ZAP or Rat-ZAP 1 μg/ml, 72 hours
Description: as §2

[7] = test system: irinotecan-non-treated PLR59; assay: Flow cytometry (FCM) binding activity of commercially available antibodies to cell-surface antigens; design: species or system human; conditions: with antibody
Description: (§3) The present inventors tested whether an anti-tumor effect can be expected with target therapy using a membrane protein expressed at a high level as the target in irinotecan-treated or non-treated PLR59 and PLR123. Commercially available antibodies shown in Table 12 were assessed by flow cytometry (FCM) for the binding activity to antigens expressed on the cell surface of irinotecan-treated or non-treated PLR59 or PLR123.

[8] = test system: irinotecan-non-treated PLR123; assay: as above; design: species or system human; conditions: with antibody
Description: as §3

[9] = 10 μg/ml, three days (FIGS. 10 and 24)
[10] = 120 mg/kg irinotecan (FIGS. 54 and 56)

Row | Molecule | Lgr5 state of drug-resistant cells arising from Lgr5-positive CSCs [1] | proliferation of Lgr5-positive large intestine CSCs [2, 9] | proliferation and survival of Lgr5-negative large intestine CSCs [3] | percentage of viable cells relative to non-treated control cells [3] | internalization activity level [5] | internalization activity level [6] | binding activity by flow cytometry (FCM), Antibody + [7] | binding activity by flow cytometry (FCM), Antibody + [8] | also measured
1 | O=c1[nH]cc(F)c(=O)[nH]1 [5-FU, fluorouracil] | negative for Lgr5 | significantly inhibited | did not affect | fully resistant |  |  |  |  | 
2 | Cc1cc([N+](=O)[O-])ccc1NS(=O)(=O)c1cc(Cl)ccc1Cl [FH535] |  |  |  |  |  |  |  |  | proliferation of Lgr5-positive large intestine CSCs ([2]; 50 μM, three days of culture, PLR59 and PLR123 (FIGS. 8 and 22)): significantly reduced; proliferation of Lgr5-negative large intestine CSCs ([3]; 50 μM, three days of culture (FIGS. 8 and 22)): had no effect
3 | COc1cc(O)cc(O)c1C(=O)/C=C/c1ccccc1 [cardamonin] |  |  |  |  |  |  |  |  | viable cell count ([2]; 50 μM, three days of culture, Lgr5-positive CSCs (FIGS. 8 and 22)): 70%; viable cell count ([3]; 50 μM, three days of culture, Lgr5-negative CSCs (FIGS. 8 and 22)): about 50%
4 | CCc1c2c(nc3ccc(OC(=O)N4CCC(N5CCCCC5)CC4)cc13)-c1cc3c(c(=O)n1C2)COC(=O)[C@]3(O)CC [irinotecan] | negative for Lgr5 | significantly inhibited | did not affect | fully resistant |  |  |  |  | transition of single Lgr5-positive cells into the Lgr5-negative state ([1]; single cells cultured in multi-well plate, irinotecan treatment, within three days (FIG. 49, Table 5)): underwent a transition into the Lgr5-negative state; tumor growth ([4]; 120 mg/kg (MTD) into the peritoneal cavities, days 12, 15, 18 after grafting (FIG. 55)): inhibited almost completely; Lgr5-positive cells in tumor [4, 10]: dramatic decrease; number of Lgr5-negative and HLA-DMA-positive cells in tumor [4, 10]: increased significantly
5 | B1 |  |  |  |  | +++ (25% or more) | +++ (25% or more) | 1177 | 1843 | 
6 | B2 |  |  |  |  | ++ (15% or more and less than 25%) | − (less than 5%) | 37 | 61 | 
